Measurements as given in PubChem BioAssay (NCI).
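Tested at 5 concentrations; 48 h exposure; 96-well plates; endpoints linearly interpolated, else capped at highest concentration. At the GI50, growth is halved. TGI is the concentration that stops growth completely.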

Key:
Test in all cases: NCI anticancer screen, dose series, 48 h; in the data active = GI50 below about 0.43 µM; inactive = the rest
[1] = system: UACC-257 melanoma
[2] = system: RPMI-8226 leukemia
[3] = system: A498 renal
[4] = system: SF-295 CNS
[5] = system: OVCAR-5 ovarian
[6] = system: HOP-62 NSCLC
[7] = system: SN12C renal
[8] = system: SK-MEL-2 melanoma
[9] = system: NCI-H522 lung
[10] = system: KM12 colon
[11] = system: K-562 leukemia
[12] = system: NCI-H460 lung
[13] = system: DU-145 prostate
[14] = system: MDA-MB-435
[15] = system: RXF 393 renal
[16] = system: MCF7 breast
[17] = system: HOP-92 NSCLC
[18] = system: HL-60(TB) leukemia
[19] = system: SR leukemia
[20] = system: HCT-15 colon
[21] = system: NCI-H226 lung
[22] = system: HT29 colon
[23] = system: SK-MEL-28 melanoma
[24] = system: BT-549 breast
[25] = system: HCT-116 colon
[26] = system: TK-10 renal
[27] = system: MOLT-4 leukemia
[28] = system: MDA-MB-231 breast
[29] = system: LOX IMVI melanoma

Cc1c(NC(=O)c2cc(C(N)=O)nc3cc(F)ccc23)c(C(F)(F)F)nn1Cc1ccc(C#N)cc1
> 64.4 µM: TGI [9]
> 87.3 µM: TGI [6]
> 83.7 µM: TGI [8]
62.4 µM: TGI [3]
3.67 µM: TGI [2]
97.5 µM: TGI [5]
18.1 µM: TGI [17]
> 100 µM: TGI [1] | TGI [11] | TGI [12] | TGI [14] | TGI [18] | TGI [19] | TGI [20] | TGI [21] | TGI [23] | TGI [25] | TGI [27] | TGI [28] | TGI [29]
> 72 µM: TGI [7]
17.7 µM: TGI [16]
25.3 µM: TGI [24]
> 53.6 µM: TGI [26]
1.91 µM: TGI [22]
inactive: GI50 [1] > 95.3 µM | GI50 [3] 15.1 µM | GI50 [4] 10.4 µM | GI50 [5] 8.61 µM | GI50 [6] 13.6 µM | GI50 [7] 1.59 µM | GI50 [8] 19.2 µM | GI50 [9] 18.3 µM | GI50 [10] 0.512 µM | GI50 [11] 13.1 µM | GI50 [12] 4.76 µM | GI50 [13] 1.1 µM | GI50 [14] 56.9 µM | GI50 [15] 5.56 µM | GI50 [17] 1.28 µM | GI50 [18] 29.8 µM | GI50 [19] 48.8 µM | GI50 [20] 23 µM | GI50 [21] 13.4 µM | GI50 [23] 37.4 µM | GI50 [24] 1.78 µM | GI50 [25] 2.84 µM | GI50 [26] 3.2 µM | GI50 [27] 1.7 µM | GI50 [28] 17.8 µM | GI50 [29] 8.13 µM
28.8 µM: TGI [15]
> 56.4 µM: TGI [13]
54.9 µM: TGI [4]
active: GI50 [2] 0.0101 µM | GI50 [16] 0.276 µM | GI50 [22] 0.219 µM
> 37.9 µM: TGI [10]
